Read-outs that look alike come from different tables or passages of the source.

One assay has as its system HLA-B∗0702. From the text:
(§1) In addition HLA-expression profiles are established from tumor biopsies that are taken from the patients 12 weeks after the last vaccination.
For further investigation new biopsies of the tumors of both patients are taken for analysis of tumor antigen expression and the establishment of a HLA expression profile using the method of the present invention.

The test system of another assay is tumor. The procedure:
(§2) Before the vaccination therapy is started, the method described herein above is applied to establish HLA- and TCR-specific gene expression profiles of the patient's PBMCs. Furthermore the tumor size/mass is determined by CT scan. During therapy, the patients received 1 mg of the HLA-B^∗0702-restricted peptide […] every 2 weeks for 6 doses.
as §1

A further assay concerns patient's PBMCs. The settings on record: 6 weeks after vaccination vs before treatment. The procedure:
The above described method is used for monitoring an immune response in 2 melanoma patients that were treated by an immunotherapy based on a peptide vaccine consisting of the HLA-B^∗0702-restricted T cell epitope […] (aa97-111) (SEQ ID NO: 40) of the tumor-associated antigen NY-ESO 1. In order to evaluate whether or not patients would benefit from a corresponding peptide vaccination therapy, HLA genotyping is done to test for HLA-B^∗0702 and tumor biopsies are examined for high NY-ESO 1 expression.
as §2, §1

Turning to ATPMEAELARRSLAQ, in the assay with HLA-B∗0702 (patient 1, tumor biopsy 12 weeks after the last vaccination), the “HLA expression profile of tumor cells” value was “normal HLA expression profile”. Besides, the “expression of HLA-B∗0702 in tumor cells” value in the assay on HLA-B∗0702 (patient 2, tumor biopsy 12 weeks after the last vaccination) is reported as “completely lost”. Moreover, in the assay with HLA-B∗0702 (patients' PBMCs, all time points), the “expression of isotypes of HLA class I and II” value is on record as “expressed at normal levels”. In addition, the “tumor mass in the CT scan” value in the assay on tumor (both patients, along with the T cell response seen 6 weeks after vaccination) is “loss of the tumor mass”. The “tumor in CT scan” value is “continuous tumor regression” in the assay with tumor (patient 1, 12 weeks after vaccination) and “growing again” in the assay with tumor (patient 2, 12 weeks after vaccination). For the same sequence, the “increased expression of the TCR-β sequence V4.1 D2 J2.1 C2” value was found to be 9.6 fold in the assay on patient's PBMCs (patient 1, PBMCs) and 10.6 fold in the assay on patient's PBMCs (patient 2, PBMCs). The “increased expression of the TCR-α sequence V1.1 J23 C” value in the assay with patient's PBMCs (patient 1, PBMCs, 1 mg peptide every 2 weeks for 6 doses) is reported as 10.3 fold; in the assay with patient's PBMCs (patient 2, PBMCs) it was 9.3 fold.
